How the values were obtained:
Format in all cases: in vivo
[1] = tested on: barnyardgrass (Echinochloa crus-galli); experiment: Test G Post-Emergence Protocol; conditions: Echinochloa crus-galli, post-emergence, 312 h, read-out: Barnyardgrass damage rating
Summary of the method: (§1)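 Eight days post-sowing, plants received a spray of test compound (acetone/water 50:50, 0.5% Tween 20) at 15.625, 62.5 or 250 g/ha. Glasshouse regime thereafter: 24/16 °C, 14 h light, 65% humidity. Assessment after 13 days on a 0–100 damage scale.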

[2] = tested on: giant foxtail (Setaria faberi); experiment: Test G Post-Emergence Protocol; conditions: Setaria faberi, post-emergence, 312 h, read-out: Foxtail, Giant damage rating
Summary of the method: as §1

[3] = tested on: velvetleaf (Abutilon theophrasti); experiment: Test G Post-Emergence Protocol; conditions: Abutilon theophrasti, post-emergence, 312 h, read-out: Velvetleaf damage rating
Summary of the method: as §1

[4] = tested on: ivy-leaved morning glory (Ipomoea hederacea); experiment: Test G Post-Emergence Protocol; conditions: Ipomoea, post-emergence, 312 h, read-out: Morningglory, Ivy-leaved damage rating
Summary of the method: as §1

[5] = tested on: redroot pigweed (Amaranthus retroflexus); experiment: Test G Post-Emergence Protocol; conditions: Amaranthus retroflexus, post-emergence, 312 h, read-out: Pigweed, Redroot damage rating
Summary of the method: as §1

corn (Zea mays) [6] = experiment: Test G Post-Emergence Protocol; conditions: Zea mays, post-emergence, 312 h, read-out: Corn damage rating
Summary of the method: as §1

[7] = tested on: barnyardgrass (Echinochloa crus-galli); experiment: Test G Pre-Emergence Protocol; conditions: Echinochloa crus-galli, pre-emergence, 312 h, evaluated after 13 days
Summary of the method: (§2)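 Pre-emergence spray, 15.625/62.5/250 g/ha, vehicle acetone:water 50:50 + 0.5% Tween 20, applied 1 d after sowing. Glasshouse 24/16° C, 14 h light, 65% RH, watered twice daily. Visual damage rating at 13 d, 0–100 scale.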

[8] = tested on: giant foxtail (Setaria faberi); experiment: Test G Pre-Emergence Protocol; conditions: Setaria faberi, pre-emergence, 312 h, evaluated after 13 days
Summary of the method: as §2

[9] = tested on: velvetleaf (Abutilon theophrasti); experiment: Test G Pre-Emergence Protocol; conditions: Abutilon theophrasti, pre-emergence, 312 h, evaluated after 13 days
Summary of the method: as §2

[10] = tested on: ivy-leaved morning glory (Ipomoea hederacea); experiment: Test G Pre-Emergence Protocol; conditions: Ipomoea, pre-emergence, 312 h, evaluated after 13 days
Summary of the method: as §2

[11] = tested on: redroot pigweed (Amaranthus retroflexus); experiment: Test G Pre-Emergence Protocol; conditions: Amaranthus retroflexus, pre-emergence, 312 h, evaluated after 13 days
Summary of the method: as §2

corn (Zea mays) [12] = experiment: Test G Pre-Emergence Protocol; conditions: Zea mays, pre-emergence, 312 h, evaluated after 13 days
Summary of the method: as §2

[13] = 15.625 g ai/ha, evaluated after 13 days (100=total damage to plant; 0=no damage to plant)
[14] = 62.5 g ai/ha, evaluated after 13 days, 100=total damage to plant, 0=no damage to plant
[15] = 250 g ai/ha, evaluated after 13 days, 100=total damage to plant, 0=no damage to plant

CN1C[C@H](c2ccc(F)c(C#N)c2)[C@@H](C(=O)Nc2ccccc2S(C)(=O)=O)C1=O (racemic) [Compound 1798]
20%: pest or weed control at 62.5 g/ha [2, 14] | pest or weed control at 250 g/ha [5, 15] | pest or weed control at 250 g/ha ([11]; 250 g ai/ha, read-out: Pigweed, Redroot damage rating (100=total damage to plant; 0=no damage to plant))
0%: pest or weed control at 15.625 g/ha [1, 13] | pest or weed control at 62.5 g/ha [1, 14] | pest or weed control at 250 g/ha [1, 15] | pest or weed control at 15.625 g/ha [2, 13] | pest or weed control at 15.625 g/ha [3, 13] | pest or weed control at 62.5 g/ha [3, 14] | pest or weed control at 250 g/ha [3, 15] | pest or weed control at 15.625 g/ha [4, 13] | pest or weed control at 62.5 g/ha [4, 14] | pest or weed control at 250 g/ha [4, 15] | pest or weed control at 15.625 g/ha [5, 13] | pest or weed control at 62.5 g/ha [5, 14] | plant injury at 15.625 g/ha (corn (Zea mays) [6]; [13]) | plant injury at 62.5 g/ha (corn (Zea mays) [6]; [14]) | plant injury at 250 g/ha (corn (Zea mays) [6]; [15]) | pest or weed control at 15.625 g/ha ([7]; 15.625 g ai/ha, read-out: Barnyardgrass damage rating (100=total damage to plant; 0=no damage to plant)) | pest or weed control at 62.5 g/ha ([7]; 62.5 g ai/ha, 100=total damage to plant, 0=no damage to plant, read-out: Barnyardgrass damage rating) | pest or weed control at 15.625 g/ha ([8]; 15.625 g ai/ha, read-out: Foxtail, Giant damage rating (100=total damage to plant; 0=no damage to plant)) | pest or weed control at 15.625 g/ha ([9]; 15.625 g ai/ha, read-out: Velvetleaf damage rating (100=total damage to plant; 0=no damage to plant)) | pest or weed control at 62.5 g/ha ([9]; 62.5 g ai/ha, 100=total damage to plant, 0=no damage to plant, read-out: Velvetleaf damage rating) | pest or weed control at 15.625 g/ha ([10]; 15.625 g ai/ha, read-out: Morningglory, Ivy-leaved damage rating (100=total damage to plant; 0=no damage to plant)) | pest or weed control at 62.5 g/ha ([10]; 62.5 g ai/ha, 100=total damage to plant, 0=no damage to plant, read-out: Morningglory, Ivy-leaved damage rating) | pest or weed control at 250 g/ha ([10]; 250 g ai/ha, read-out: Morningglory, Ivy-leaved damage rating (100=total damage to plant; 0=no damage to plant)) | pest or weed control at 15.625 g/ha ([11]; 15.625 g ai/ha, read-out: Pigweed, Redroot damage rating (100=total damage to plant; 0=no damage to plant)) | pest or weed control at 62.5 g/ha ([11]; 62.5 g ai/ha, 100=total damage to plant, 0=no damage to plant, read-out: Pigweed, Redroot damage rating) | plant injury at 15.625 g/ha (corn (Zea mays) [12]; 15.625 g ai/ha, read-out: Corn damage rating (100=total damage to plant; 0=no damage to plant)) | plant injury at 62.5 g/ha (corn (Zea mays) [12]; 62.5 g ai/ha, 100=total damage to plant, 0=no damage to plant, read-out: Corn damage rating) | plant injury at 250 g/ha (corn (Zea mays) [12]; 250 g ai/ha, read-out: Corn damage rating (100=total damage to plant; 0=no damage to plant))
10%: pest or weed control at 250 g/ha [2, 15] | pest or weed control at 250 g/ha ([7]; 250 g ai/ha, read-out: Barnyardgrass damage rating (100=total damage to plant; 0=no damage to plant)) | pest or weed control at 62.5 g/ha ([8]; 62.5 g ai/ha, 100=total damage to plant, 0=no damage to plant, read-out: Foxtail, Giant damage rating) | pest or weed control at 250 g/ha ([9]; 250 g ai/ha, read-out: Velvetleaf damage rating (100=total damage to plant; 0=no damage to plant))
30%: pest or weed control at 250 g/ha ([8]; 250 g ai/ha, read-out: Foxtail, Giant damage rating (100=total damage to plant; 0=no damage to plant))

— patent US12077503B2, “Substituted cyclic amides and their use as herbicides” (FMC CORPORATION, priority 2015, dated 2024)
